Series [1] has as its system Aβ38. The series is described as follows: In vivo efficacy B-2b: brain soluble Aβ38, MSD electrochemiluminescence multiplex. As to conditions: mouse brain soluble fraction, dose 30 mg/kg oral dosing, 4 h after dose; untreated control set at 100; read-out: Aβ38 (% vs Ctrl)_Mean. An excerpt: To determine whether acute administration of an Aβ38 increasing agents would increase Aβ38 levels in vivo, non-transgenic rodents, e.g. mice or rats were used. Animals treated with the Aβ38 increasing agents were examined and compared to those untreated or treated with vehicle and brain levels of soluble Aβ42, Aβ40, Aβ38, and Aβ37 were quantitated by MSD electrochemiluminescence detection technology. Treatment periods varied from hours (h) to days and were adjusted based on the results of the Aβ38 increase once a time course of onset of effect could be established.
(§1) A typical protocol for measuring Aβ38 increase in vivo is shown but it is only one of many variations that could be used to optimize the levels of detectable Aβ. For example, Aβ38 increasing agents were formulated in 20% of Captisol® (a sulfobutyl ether of β-cyclodextrin) in water or 20% hydroxypropyl β cyclodextrin. The Aβ38 increasing agents were administered as a single oral dose or by any acceptable route of administration to overnight fasted animals. After 4 h, the animals were sacrificed and Aβ38 levels were analysed.
(§2) Blood was collected by decapitation and exsanguinations in EDTA-treated collection tubes. Blood was centrifuged at 1900 g for 10 minutes (min) at 4° C. and the plasma recovered and flash frozen for later analysis. The brain was removed from the cranium and hindbrain. The cerebellum was removed and the left and right hemisphere were separated. The left hemisphere was stored at −18° C. for quantitative analysis of test compound levels. The right hemisphere was rinsed with phosphate-buffered saline (PBS) buffer and immediately frozen on dry ice and stored at −80° C. until homogenization for biochemical assays.
(§3) Mouse brains from non-transgenic animals were resuspended in 8 volumes of 0.4% DEA (diethylamine)/50 mM NaCl containing protease inhibitors (Roche-11873580001 or 04693159001) per gram of tissue, e.g. for 0.158 g brain, add 1.264 ml of 0.4% DEA. All samples were homogenized in the FastPrep-24 system (MP Biomedicals) using lysing matrix D (MPBio #6913-100) at 6 m/s for 20 seconds. Homogenates were centrifuged at 20800×g for 5 min and supernatants collected. Supernatants were centrifuged at 221.300×g for 50 min. The resulting high speed supernatants were then transferred to fresh eppendorf tubes. Nine parts of supernatant were neutralized with 1 part 0.5 M Tris-HCl pH 6.8 and used to quantify Aβ.
To quantify the amount of Aβ42, Aβ40, Aβ38, and Aβ37 in the soluble fraction of the brain homogenates, simultaneous specific detection of Aβ42, Aβ40, Aβ38, and Aβ37 was performed using MSD's electro-chemiluminescence multiplex detection technology. In this assay purified monoclonal antibodies specific for Abeta37 (JRD/Aβ37/3), Abeta38 (J&JPRD/Aβ38/5), Abeta40 (JRF/cAβ40/28), and Abeta42 (JRF/cAβ42/26) were coated on MSD 4-plex plates. Briefly, the standards (a dilution of synthetic Aβ42, Aβ40, Aβ38, and Aβ37) were prepared in 1.5 ml Eppendorf tube in Ultraculture, with final concentrations ranging from 10000 to 0.3 pg/m. The samples and standards were co-incubated with Sulfo-tag labelled JRF/rAβ/2 antibody to the N-terminus of Aβ as detector antibody. 50 μl of conjugate/sample or conjugate/standards mixtures were then added to the antibody-coated plate. The plate was allowed to incubate overnight at 4° C. in order to allow formation of the antibody-amyloid complex. Following this incubation and subsequent wash steps the assay was finished by adding read buffer according to the manufacturer's instructions (Meso Scale Discovery, Gaitherburg, Md.).
The SULFO-TAG emits light upon electrochemical stimulation initiated at the electrode. MSD Sector instrument SI6000 was used for signal read-out.
In this model a Aβ38 increase compared to untreated animals would be advantageous, in particular a Aβ38 increase with at least 10%, more in particular a Aβ38 increase with at least 20%. […]

The test system of series [2] is Aβ38. The series is described as follows: In vivo efficacy B-2a: brain soluble Aβ38 in non-transgenic rodents, ELISA. As to conditions: dose 30 mg/kg oral dosing, brain soluble fraction, untreated animals (Ctrl) set at 100; for response vs control in vivo at 30 mg/kg: Mus musculus, po, read-out: Aβ38 (% vs Ctrl)_Mean. On the set-up: species or system mouse.
Source text: Aβ38 increasing agents can be administered in any standard form using any standard method. For example, but not limited to, Aβ38 increasing agents can be in the form of liquid, tablets or capsules that are taken orally or by injection.
To determine whether acute administration of an Aβ38 increasing agents would increase Aβ38 levels in vivo, non-transgenic rodents, e.g. mice or rats were used. Animals treated with the Aβ38 increasing agents were examined and compared to those untreated or treated with vehicle and brain levels of soluble Aβ38 and total Aβ were quantitated by standard techniques, for example, using ELISA. Treatment periods varied from hours (h) to days and were adjusted based on the results of the Aβ38 increase once a time course of onset of effect could be established.
as §1, §2
as §3, with “mL” for “ml”, “Aβtotal and Aβ38.” for “Aβ.”
To quantify the amount of Aβtotal and Aβ38 in the soluble fraction of the brain homogenates, Enzyme-Linked-Immunosorbent-Assays were used. Briefly, the standards (a dilution of synthetic Aβ1-40 and Aβ1-38, ANASPEC) were prepared in 1.5 mL Eppendorf tube in Ultraculture, with final concentrations ranging from 10000 to 0.3 pg/mL. The samples and standards were co-incubated with HRPO-labelled N-terminal antibody for Aβ38 detection and with the biotinylated mid-domain antibody 4G8 for Aβtotal detection. 50 μl of conjugate/sample or conjugate/standards mixtures were then added to the antibody-coated plate (the capture antibodies selectively recognize the C-terminal end of Aβ38, antibody J&JPRD/Aβ38/5, for Aβ38 detection and the N-terminus of Aβ, antibody JRF/rAβ/2, for Aβtotal detection). The plate was allowed to incubate overnight at 4° C. in order to allow formation of the antibody-amyloid complex. Following this incubation and subsequent wash steps the ELISA for Aβ38 quantification was finished by addition of Quanta Blu fluorogenic peroxidase substrate according to the manufacturer's instructions (Pierce Corp., Rockford, Ill.). A reading was performed after 10 to 15 min (excitation 320 nm/emission 420 nm). […]

`COc1c(C#N)ccc2[nH]c(-c3nc4n(n3)CCOC4c3c(F)cccc3Cl)cc12` (single isomer, unassigned) [Compound 117, 2-[8-(2-chloro-6-fluorophenyl)-5,6-dihydro-8H-[1,2,4]triazolo[5,1-c][1,4]oxazin-2-yl]-4-methoxy-1H-indole-5-carbonitrile]: the response vs control in vivo at 30 mg/kg came to 147% in the series with Aβ38 [1] and 106% in the series on Aβ38 [2].
As a reminder, the melting point is the temperature, or range, at which the solid turns liquid. In the case of `COc1c(C#N)ccc2[nH]c(-c3cn4c(n3)C(c3ccc(F)cc3C)OCC4)cc12` (stereo not drawn) [Compound 47, 2-[8-(4-fluoro-2-methylphenyl)-5,6-dihydro-8H-imidazo[2,1-c][1,4]oxazin-2-yl]-4-methoxy-1H-indole-5-carbonitrile], the melting point was found to be 242.6 °C. Further, the response vs control in vivo at 30 mg/kg with Aβ38 [1] came out at 222%. Moreover, the “Aβ38 (% vs Ctrl)_Mean” value with Aβ38 [2] (30 mg/kg) is given as 87 % vs Ctrl.
As for `COc1c(C#N)ccc2[nH]c(-c3nc4n(n3)CCOC4c3ccccc3C(F)(F)F)cc12` (stereo not drawn) [Compound 55, 2-[5,6-dihydro-8-[2-(trifluoromethyl)phenyl]-8H-[1,2,4]triazolo[5,1-c][1,4]oxazin-2-yl]-4-methoxy-1H-indole-5-carbonitrile], the response vs control in vivo at 30 mg/kg was determined as 148% in the series with Aβ38 [1] and 130% in the series with Aβ38 [2].
The corresponding values for `Cc1cn(-c2ccc3[nH]c(-c4nc5n(n4)CCCC5c4ccc(F)cc4C)nc3c2)cn1` (stereo not drawn) [Compound 176, 8-(4-fluoro-2-methylphenyl)-5,6,7,8-tetrahydro-2-[5-(4-methyl-1H-imidazol-1-yl)-1H-benzimidazol-2-yl]-[1,2,4]triazolo[1,5-a]pyridine] are 126% and 93%.

The values above are taken from patent publication US9115143B2, “Substituted indole derivatives as gamma secretase modulators” (Janssen Pharmaceuticals, Inc., priority 2011, dated 2015).
